How the values were obtained:
[1] = test system: KB; experiment: Cytotoxicity against human KB cells after 72 hrs by MTT assay; assay type: functional, cell-based
[2] = test system: HeLa; experiment: Cytotoxicity against human HeLa cells after 72 hrs by MTT assay; assay type: functional, cell-based

| Structure (SMILES) | IC50 [1] [µM] | IC50 [2] [µM] |
| --- | --- | --- |
| COc1cc([C@@H]2c3cc4c(cc3[C@H](O)[C@H]3COC(=O)[C@H]23)OCO4)cc(OC)c1OC(C)=O | 0.05 | 0.076 |
| COc1cc([C@@H]2c3cc4c(cc3[C@@H](O[C@@H]3O[C@H](CO)[C@@H](O)[C@H](O)[C@H]3O)[C@H]3COC(=O)[C@H]23)OCO4)cc(OC)c1O | < 0.01 | 0.048 |
| COc1cc([C@@H]2c3cc4c(cc3[C@H](O[C@@H]3O[C@H](CO)[C@@H](O)[C@H](O)[C@H]3O)[C@H]3COC(=O)[C@H]23)OCO4)cc(OC)c1O | 9.51 | 5.33 |
| COc1cc([C@@H]2c3cc4c(cc3C[C@H]3COC(=O)[C@@H]32)OCO4)cc(OC)c1O[C@@H]1O[C@H](CO)[C@@H](O)[C@H](O)[C@H]1O | 2.09 | 0.87 |
| COc1cc([C@@H]2c3cc4c(cc3[C@H](O[C@@H]3O[C@H](CO[C@@H]5O[C@H](CO)[C@@H](O)[C@H](O)[C@H]5O)[C@@H](O)[C@H](O)[C@H]3O)[C@H]3COC(=O)[C@@H]23)OCO4)cc(OC)c1OC | > 100 | > 100 |
| COc1cc([C@@H]2c3cc4c(cc3[C@H](O)[C@H]3COC(=O)[C@H]23)OCO4)cc(OC)c1O | 0.064 | 0.08 |
| COc1cc([C@@H]2c3cc4c(cc3[C@H](O[C@@H]3O[C@H](CO)[C@@H](O)[C@H](O)[C@H]3O)[C@H]3COC(=O)[C@H]23)OCO4)cc(OC)c1OC | 9.25 | 6.65 |
| COc1cc(-c2c3c(c(O)c4cc5c(cc24)OCO5)COC3=O)cc(OC)c1O | 84.7 | > 100 |
| COc1cc([C@@H]2c3cc(O)c(O)cc3[C@H](O)[C@H]3COC(=O)[C@H]23)cc(OC)c1O | > 100 | 79.6 |
| COc1cc([C@@H]2c3cc4c(cc3C[C@H]3COC(=O)[C@@H]32)OCO4)cc(OC)c1O [4'-DEMETHYLDEOXYPODOPHYLLOTOXIN] | 0.0078 | 0.074 |
| COc1cc([C@@H]2c3cc(O)c(O)cc3[C@H](O)[C@H]3COC(=O)[C@H]23)cc(OC)c1OC [6,7-O,O-DEMETHYLENEPODOPHYLLOTOXIN] | > 100 | > 100 |
| COc1cc(-c2c3c(c(O)c4cc5c(cc24)OCO5)COC3=O)cc(OC)c1OC [DEHYDROPODOPHYLLOTOXIN] | 9.79 | 8.28 |
| COc1cc([C@@H]2c3cc4c(cc3C[C@H]3COC(=O)[C@@H]32)OCO4)cc(OC)c1OC [DESOXYPODOPHYLLOTOXIN] | 0.0089 | 0.0069 |
| COc1cc([C@@H]2c3cc4c(cc3[C@@H](O[C@@H]3O[C@@H]5CO[C@@H](C)O[C@H]5[C@H](O)[C@H]3O)[C@H]3COC(=O)[C@H]23)OCO4)cc(OC)c1O [ETOPOSIDE] | 10 | 4 |
| COc1cc([C@@H]2c3cc4c(cc3C(=O)[C@@H]3COC(=O)[C@H]23)OCO4)cc(OC)c1OC [ISOPICROPODOPHYLLONE] | > 100 | 32.1 |
| COc1cc([C@@H]2c3cc4c(cc3[C@H](O)[C@H]3COC(=O)[C@H]23)OCO4)cc(OC)c1OC [PODOFILOX] | 0.056 | 0.069 |
| COc1cc([C@@H]2c3cc4c(cc3[C@H](O[C@@H]3O[C@H](COC(C)=O)[C@@H](O)[C@H](O)[C@H]3O)[C@H]3COC(=O)[C@H]23)OCO4)cc(OC)c1OC [SINOLIGNAN A] | 8.76 | 3.77 |
| COc1cc([C@@H]2c3cc4c(cc3[C@H](O[C@@H]3O[C@H](CO[C@@H]5O[C@H](CO)[C@@H](O)[C@H](O)[C@H]5O)[C@@H](O)[C@H](O)[C@H]3O)[C@H]3COC(=O)[C@@H]23)OCO4)cc(OC)c1O [SINOLIGNAN B] | > 100 | > 100 |

Reference: ChEMBL document CHEMBL1777806, “Three new cytotoxic aryltetralin lignans from Sinopodophyllum emodi” (Bioorg Med Chem Lett, 2011)
